Source: patent US10463664B2, “Inhibitors of HSV nucleotidyl transferases and uses therefor” (Saint Louis University, priority 2013, dated 2019)

Columns and labels:
[1] = test system: HSV-1; experiment: Anti-HSV-1 replication assay in Vero cells, titer by plaque assay; assay type: cell-based, herpes simplex virus 1; details: for Anti-HSV-1 Log10 suppression 5 μM (screening symbol) / Anti-HSV-1 Log10 suppression 50 μM (screening symbol): visual inspection; for Anti-HSV-1 Log10 suppression 5 μM / Anti-HSV-1 Log10 suppression 50 μM: moi 0.1, 24 h, relative to DMSO; for Inhibition of HSV-1 replication (in words): primary screening
Description: (§1) Anti-HSV-1 and -HSV-2 Replication Assay. Compounds to be screened were diluted in PBS supplemented to contain 2% newborn calf serum and 1% glutamine, and added in 100 μL, volume to confluent cell monolayers in 24-well cluster plates. Immediately thereafter HSV-1 and HSV-2, diluted in the supplemented PBS medium, were added to the wells in 50 μl volume such that the final concentration of compound was 50 μM and 5 μM and the multiplicity of infection was 0.1. The plates were incubated at 37° C. for 1 hour and then virus-containing inoculum was removed and the wells were washed once in PBS. Compounds, diluted to 50 μM and 5 μM in DMEM supplemented to contain 2% newborn calf serum and 1% each penicillin/streptomycin, were added at 0.5 mL/well. Plates were incubated at 37° C. an additional 23 hr, and then the plates were visually inspected through a phase contrast microscope for cytopathic effect, and for toxic effect. […] The entire contents of each well were collected by scraping. Samples were frozen at −80° C., and then subsequently thawed, sonicated, and infectious virus titer was determined by standard plaque assay on Vero cell monolayers. Because the compounds were dissolved at 10 mM in 100% DMSO, equivalent dilutions of DMSO were added to additional wells as a control for effects of the diluent. Each experiment was repeated once. EC50 values were determined as above except that serial dilutions of the compound to be tested were prepared starting at 50 μM. The inhibitory values were calculated by non-linear curve-fitting in GraphPad Prism.
(§2) Monolayers were microscopically inspected 24 hours post-infection and wells in which more cells were visually healthier than the DMSO-treated controls were collected. Viral titers in the culture lysates were then determined by standard plaque assay on Vero cells. Inhibition of viral replication was categorized as <1 log10 relative to the DMSO-treated control, 1 to 3 log10 suppression, or ≥3 log10 suppression. […] Additionally, four polyoxygenated heterocycle compounds were tested (#128, 138, 139, 140).

[2] = test system: HSV-2; experiment: Anti-HSV-2 replication assay in Vero cells, titer by plaque assay; assay type: cell-based, herpes simplex virus 2; details: for Anti-HSV-2 Log10 suppression 5 μM (screening symbol) / Anti-HSV-2 Log10 suppression 50 μM (screening symbol): visual inspection; for Anti-HSV-2 Log10 suppression 5 μM / Anti-HSV-2 Log10 suppression 50 μM: moi 0.1, 24 h, relative to DMSO; for Inhibition of HSV-2 replication (in words): primary screening
Description: as §1, §2

[3] = biological target: T1, HBV RNaseH (Hepatitis B virus genotype A2 subtype adw2, UniProt P03159); experiment: Biochemical inhibition of HBV RNaseH (oligonucleotide-directed RNA cleavage assay); details: compounds at 60, 20 or 10 μM
T1 construct: One of the inventors recently produced active recombinant HBV RNase H; hexahistidine; made in house; host or cells: E. coli
Description: Biochemical inhibition of HBV RNaseH and human RNaseH1 activity. […] RNaseH activity was measured using an oligonucleotide-directed RNA cleavage assay in which a DNA oligonucleotide is annealed to an internally ^32P-labeled RNA, the RNA:DNA heteroduplex is incubated with the enzyme to permit cleavage, and then the RNA cleavage products are resolved by electrophoresis and detected by autoradiography. The compounds were included in the reaction mixes at 60, 20, or 10 μM and the amount of the RNA cleavage products in the compound-containing reactions was compared to reactions in which an equivalent concentration of DMSO was added as a vehicle control. The data were quantified using ImageJ.

T1 sequence (P03159 693-845): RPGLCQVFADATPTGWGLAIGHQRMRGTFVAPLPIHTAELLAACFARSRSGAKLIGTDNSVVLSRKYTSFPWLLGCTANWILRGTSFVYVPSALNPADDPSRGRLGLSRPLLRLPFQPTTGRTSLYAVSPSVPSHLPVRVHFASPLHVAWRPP

| Structure (SMILES) | Anti-HSV-1 Log10 suppression 5 μM (screening symbol) [1] | Anti-HSV-1 Log10 suppression 50 μM (screening symbol) [1] | Anti-HSV-2 Log10 suppression 5 μM (screening symbol) [2] | Anti-HSV-2 Log10 suppression 50 μM (screening symbol) [2] | Anti-HBV RNaseH [3] | Inhibition of HSV-1 replication (in words) [1] | Inhibition of HSV-2 replication (in words) [2] | further results |
| --- | --- | --- | --- | --- | --- | --- | --- | --- |
| COC(=O)Oc1nsnc1N1CCOCC1 [Compound 4] | − | − | − | − | + (inhibition at 60 μM) |  |  |  |
| Cc1cc(C)c(C#N)c(=N)o1 [Compound 5] | − | − | − | − | + (inhibition at 60 μM) |  |  |  |
| NC(=O)c1c(N)sc2c1CCCCC2 [Compound 22] | − | − | − | − |  |  |  |  |
| Cc1sc2nc(-c3ccc([N+](=O)[O-])cc3)[nH]c(=O)c2c1C [Compound 38] |  |  |  |  | +++ (inhibition at 10 μM) |  |  | Anti-HSV-1 Log10 suppression 5 μM [1]: −0.07 log10; Anti-HSV-1 Log10 suppression 50 μM [1]: 0.07 log10; Anti-HSV-2 Log10 suppression 5 μM [2]: 0.11 log10; Anti-HSV-2 Log10 suppression 50 μM [2]: −0.05 log10 |
| [N-]=[N+]=NCc1cccc(C(=O)CC(=O)C(=O)O)c1 [Compound 40] |  |  |  |  |  | negligible inhibition | negligible inhibition |  |
| O=C1c2ccccc2C(=O)N1O [Compound 138] |  |  |  |  |  | None of these compounds was particularly efficacious | None of these compounds was particularly efficacious |  |
| O=C1CCC(=O)N1O [Compound 139] |  |  |  |  |  | None of these compounds was particularly efficacious | None of these compounds was particularly efficacious |  |
| Cn1c(N2CCCCS2(=O)=O)nc(C(=O)NCc2ccc(F)cc2)c(O)c1=O [Compound 72] |  |  |  |  |  | negligible inhibition | negligible inhibition |  |
| N#Cc1cc2ccccc2oc1=N [Compound 21] | − | − | − | − | − (no inhibition at 60 μM) |  |  |  |
| Cc1sc2nc(-c3ccccc3)nc(O)c2c1C [Compound 136] |  |  |  |  |  | negligible inhibition | negligible inhibition |  |
| O=C1c2ccc3ccccc3c2C(=O)N1[O-].[Na+] [Compound 128] |  |  |  |  |  | None of these compounds was particularly efficacious | None of these compounds was particularly efficacious |  |
| CC1=C(C#N)C(=O)NC(=O)C1=Cc1ccc(-c2ccccc2)o1 [Compound 140] |  |  |  |  |  | None of these compounds was particularly efficacious | None of these compounds was particularly efficacious |  |
| O=C(O)c1cn(C2CC2)c2cc(Cl)c(F)cc2c1=O [Compound 66] | − | + | − | − | − (no inhibition at 60 μM) |  |  |  |
| O=C1C(=O)C(c2cc(O)c(O)c(O)c2)Oc2cc(O)ccc21 (centres unmarked) [Compound 135] |  |  |  |  |  | negligible inhibition | negligible inhibition |  |
| O=C(O)C(=O)CC(=O)c1ccccc1 [Compound 131] |  |  |  |  |  | negligible inhibition | negligible inhibition |  |
| O=C1C(=O)C(c2ccc(O)c(O)c2)Oc2cc(O)cc(O)c21 (centres unmarked) [Compound 134] |  |  |  |  |  | negligible inhibition | negligible inhibition |  |
| NC(=O)c1c(N)sc2c1CCCCC2 [Compound 3] |  |  |  |  | − (no inhibition at 60 μM) |  |  | Anti-HSV-1 Log10 suppression 5 μM [1]: 0.19 log10; Anti-HSV-1 Log10 suppression 50 μM [1]: −0.03 log10; Anti-HSV-2 Log10 suppression 5 μM [2]: 0.06 log10; Anti-HSV-2 Log10 suppression 50 μM [2]: 0.39 log10 |
| CCn1cc(C(=O)O)c(=O)c2ccc(C)nc21 [Compound 70] | − | − | − | − | − (no inhibition at 60 μM) |  |  |  |
| CCOC(=O)c1sc(NC(=O)CSc2nnc(-c3ccc(Cl)cc3)o2)c(C#N)c1C [Compound 24] | − | − | − | − | − (no inhibition at 60 μM) |  |  |  |
| CCOC(=O)c1sc(NC(=O)CSc2nnc(Cc3ccccc3)o2)c(C#N)c1C [Compound 6] | − | − | − | − | + (inhibition at 60 μM) |  |  |  |
| Cc1cc(C(F)(F)F)c(C#N)c(=O)[nH]1 [Compound 19] | − | − | − | − | − (no inhibition at 60 μM) |  |  |  |
| O=C(Oc1cccccc1=O)c1ccc(Cl)cc1 [Compound 63] |  |  |  |  |  | negligible inhibition | negligible inhibition |  |
| Cn1c(C(C)(C)NC(=O)c2ccccc2)nc(C(=O)NCc2ccc(F)cc2)c(O)c1=O [Compound 121] |  |  |  |  |  | negligible inhibition | negligible inhibition |  |
| C[C@@H]1CCO[C@H]2Cn3cc(C(=O)NCc4ccc(F)cc4F)c(=O)c(O)c3C(=O)N12 [Compound 73, Dolutegravir, reference compound] |  |  |  |  |  | negligible inhibition | negligible inhibition |  |
